Experimental data as given in patent US10369133B2, “Immunosuppressive compounds and therapeutics” (UNIVERSITY OF TENNESSEE RESEARCH FOUNDATION, priority 2013, dated 2019).

Tests used:
NF-κB = NF-κB SEAP reporter gene assay in INS-1E cells; format: cell-based, rat; conditions: printed "at 504" (FIG. 2B: 5 μM); cytokine cocktail 10 ng/mL TNFα, 5 ng/mL IL-1β, 10 ng/mL IFN-γ; 24 hours
Procedure: Briefly, a plasmid construct containing NF-kB promoter and SEAP gene was transferred into INS-1E cells by lipofectamine. SEAP was then expressed and secreted into culture supernatant and allowed […] detection using a substrate PNPP under 405 nm. […] NF-kB activity was measured 24 hours after addition of cytokine cocktail (10 ng/mL TNFα, 5 ng/mL IL-1β and 10 ng/mL IFN-γ) alone or with JP-3-110 (5 μM) or TNP (5 μM) or MPA (5 μM). Blank, no cytokine stimulation. Cyt, cytokine cocktail. Results are presented as the mean±S.D., n=3.
INS-1E cells which were stably transfected with the SEAP gene containing the response-element for NF-κB were used to screen for anti-inflammatory activity. Briefly, 10^6 cells/well were seeded overnight followed by treatment with 10 ng/mL human recombinant TNFα and either TNP or hybrid drug JP-3-110 (1 μM). SEAP activity was measured 18 h later in supernatant samples (50 µL) using the NF-κB SEAPorter™ Assay Kit (IMGENEX, San Diego, Calif.) and a microplate luminometer. SEAP activity was normalized to the total protein content.

human CD3+ T cells = assay: Mixed lymphocyte reaction: proliferation of PHA-stimulated T cells; format: cell-based; conditions: data not shown; TNP 5 μM
Procedure: Briefly, human peripheral blood mononuclear cells PBMCs were isolated from human buffy coat using Ficoll-Paque. […] Results are presented as the mean±S.D., n=6.
PBMCs were isolated using Ficoll Paque. T cells were isolated from PBMCs using Dynabeads for. T cells were stimulated with PHA (1 μg/ml) for 24 h alone or in the presence of TNP (5 μM) or JP-3-110 (5 μM) for additional 4 days. The total number of PBMCs was measured using T4 Automatic Cell Counter (Nexcelom, Lawrence, Mass.). The extent of T cell activation was determined by measuring the level of IL-2, IL-2sRa, TNFα and IFN-γ in the medium using ELISA at indicated time.
Mixed lymphocytes reaction was used to determine the immunosuppressive effects of MPA and JP-3-110. T cells were purified using dynabeads from peripheral blood mononuclear cells (PBMCs), which were initially isolated from human buffy coat (FIG. 8A). […] The levels of IL-2, IL-2sRa, TNFα and IFNγ were detected by ELISA to study the effects of JP-3-110 and MPA on T cell activation.

Substance: (1S,3R,4S,5R)—N-butyl-1,3,4,5-tetrahydroxycyclohexane-1-carboxamide [TNP, reference compound]
- NF-κB activities in INS-1E cells (NF-κB): significantly reduced
- immunosuppressive effect in mixed lymphocytes reaction (human CD3+ T cells): did not observe any immunosuppressive effect
